This is an account of results in patent US6608086B2, “Dihydropyridines and new uses thereof” (Synaptic Pharmaceutical Corporation, priority 1993, dated 2003).

SMILES strings stand for the structures.

Data set [1] has as its target T1, L-type calcium channel (Rattus norvegicus, UniProt P22002).
T1 construct: membrane fragments of rat cardiac muscle; from tissue; host or cells: rat cardiac muscle membranes
The data set is described as follows: Competition binding of [3H]nitrendipine to membrane fragments of rat cardiac muscle. Particulars: [3H]nitrendipine, rat cardiac muscle membrane fragments, L-type calcium channel; read-out: pKi Ca (converted). How it is done:
(§1) The protocols for these experiments are given below.
Determination of the Activity of al Antagonists at Calcium Channels
Briefly, the tissue was minced and homogenized in 50 mM Tris-HCl (pH 7.4) containing 0.1 mM phenylmethylsulfonyl fluoride. The homogenates were centrifuged at 1000 g for 15 minutes, the resulting supernatant was centrifuged at 45,000 g for 15 minutes. The 45,000 g pellet was suspended in buffer and centrifuged a second time. Aliquots of membrane protein were incubated for 30 minutes at 37° C. in the presence of [3H]nitrendipine (1 nM), and nonspecific binding was determined in the presence of 10 μM nifedipine. The bound radioligand was separated by filtration through GF/B filters using a cell harvester.

In data set [2] the target is T2, α2A receptor (Homo sapiens, UniProt P08913).
T2 construct: host or cells: LM(tk-) cells, line L-α2A
T2 sequence (P08913 1-465): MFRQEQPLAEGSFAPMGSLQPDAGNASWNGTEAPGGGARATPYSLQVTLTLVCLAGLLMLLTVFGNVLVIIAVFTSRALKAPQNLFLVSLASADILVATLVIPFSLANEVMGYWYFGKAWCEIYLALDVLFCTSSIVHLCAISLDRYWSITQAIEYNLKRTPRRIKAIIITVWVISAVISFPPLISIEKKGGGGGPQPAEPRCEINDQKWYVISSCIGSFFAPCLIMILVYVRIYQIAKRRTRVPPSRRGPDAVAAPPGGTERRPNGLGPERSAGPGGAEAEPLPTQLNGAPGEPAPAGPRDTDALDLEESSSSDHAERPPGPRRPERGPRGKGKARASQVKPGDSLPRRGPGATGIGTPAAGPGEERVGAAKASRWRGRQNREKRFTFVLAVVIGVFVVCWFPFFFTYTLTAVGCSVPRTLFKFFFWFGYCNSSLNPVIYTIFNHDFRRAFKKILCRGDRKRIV
The data set is described as follows: Competition binding, [3H]rauwolscine, human α2A receptor. The conditions noted are these: [3H]rauwolscine, human receptor, LM(tk-) cell lysates; mean; read-out: PKi alpha-2 2a (converted).
Source text: as §1
(§2) α2 Human Adrenergic Receptors:
(§3) To determine the potency of […], antagonists at the α2 receptors, LM(tk−) cell lines stably transfected with the genes encoding the α2A, α2B, and α2C receptors were used. The cell line expressing the α2A receptor is designated L-α2A, and was deposited on Nov. […] The cell line expressing the α2B receptor is designated L-NGC-α2B, and was deposited on Oct. […] The cell line expressing the α2C receptor is designated L-α2C, and was deposited on Nov. […] Cell lysates were prepared as described above (see Radioligand Binding Assays), and suspended in 25 mM glycylglycine buffer (pH 7.6 at room temperature). Equilibrium competition binding assay were performed using [3H]rauwolscine (0.5 nM), and nonspecific binding was determined by incubation with 10 μM phentolamine. The bound radioligand was separated by filtration through GF/B filters using a cell harvester.

In data set [3] the target is T3, α2B receptor (Homo sapiens, UniProt P18089).
T3 construct: host or cells: LM(tk-) cells, line L-NGC-α2B
T3 sequence (P18089 1-450): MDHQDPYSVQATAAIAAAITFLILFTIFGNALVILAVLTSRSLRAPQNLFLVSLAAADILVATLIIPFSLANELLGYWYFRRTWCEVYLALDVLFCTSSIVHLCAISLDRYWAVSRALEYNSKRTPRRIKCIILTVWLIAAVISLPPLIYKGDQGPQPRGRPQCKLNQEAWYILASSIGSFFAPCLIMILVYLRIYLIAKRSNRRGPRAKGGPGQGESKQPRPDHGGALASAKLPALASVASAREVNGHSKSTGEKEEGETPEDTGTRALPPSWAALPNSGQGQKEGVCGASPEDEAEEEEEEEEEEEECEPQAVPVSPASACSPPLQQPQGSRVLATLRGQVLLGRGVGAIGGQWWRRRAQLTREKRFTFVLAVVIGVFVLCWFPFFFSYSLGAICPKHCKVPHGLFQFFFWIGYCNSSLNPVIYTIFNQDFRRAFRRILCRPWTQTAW
Briefly: Competition binding, [3H]rauwolscine, human α2B receptor. The conditions noted are these: [3H]rauwolscine, human receptor, LM(tk-) cell lysates; mean; read-out: PKi alpha-2 2b (converted).
Source text: as §1, §2, §3

Data set [4] addresses T4, α2C receptor (Homo sapiens, UniProt P18825).
T4 construct: host or cells: LM(tk-) cells, line L-α2C
T4 sequence (P18825 1-462): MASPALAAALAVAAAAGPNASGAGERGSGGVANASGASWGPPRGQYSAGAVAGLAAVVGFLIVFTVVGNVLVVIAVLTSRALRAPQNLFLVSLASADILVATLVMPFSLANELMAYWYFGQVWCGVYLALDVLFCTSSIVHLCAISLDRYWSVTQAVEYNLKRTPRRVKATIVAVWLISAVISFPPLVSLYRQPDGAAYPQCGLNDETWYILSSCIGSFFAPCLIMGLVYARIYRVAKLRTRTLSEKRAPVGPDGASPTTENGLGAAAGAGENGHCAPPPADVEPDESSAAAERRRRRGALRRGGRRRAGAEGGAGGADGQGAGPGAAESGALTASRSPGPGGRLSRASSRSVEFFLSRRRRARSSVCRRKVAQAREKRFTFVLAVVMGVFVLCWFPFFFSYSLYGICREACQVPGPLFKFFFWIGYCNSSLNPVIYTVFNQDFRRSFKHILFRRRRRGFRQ
The data set is described as follows: Competition binding, [3H]rauwolscine, human α2C receptor. The conditions noted are these: [3H]rauwolscine, human receptor, LM(tk-) cell lysates; mean; read-out: PKi alpha-2 2c (converted).
Source text: as §1, §2, §3

The target of data set [5] is T5, α1A Human Adrenergic Receptor (Homo sapiens, UniProt P25100).
T5 construct: The entire coding region of α1A (1719 bp); expressed in transfected cells
T5 sequence (P25100 1-572): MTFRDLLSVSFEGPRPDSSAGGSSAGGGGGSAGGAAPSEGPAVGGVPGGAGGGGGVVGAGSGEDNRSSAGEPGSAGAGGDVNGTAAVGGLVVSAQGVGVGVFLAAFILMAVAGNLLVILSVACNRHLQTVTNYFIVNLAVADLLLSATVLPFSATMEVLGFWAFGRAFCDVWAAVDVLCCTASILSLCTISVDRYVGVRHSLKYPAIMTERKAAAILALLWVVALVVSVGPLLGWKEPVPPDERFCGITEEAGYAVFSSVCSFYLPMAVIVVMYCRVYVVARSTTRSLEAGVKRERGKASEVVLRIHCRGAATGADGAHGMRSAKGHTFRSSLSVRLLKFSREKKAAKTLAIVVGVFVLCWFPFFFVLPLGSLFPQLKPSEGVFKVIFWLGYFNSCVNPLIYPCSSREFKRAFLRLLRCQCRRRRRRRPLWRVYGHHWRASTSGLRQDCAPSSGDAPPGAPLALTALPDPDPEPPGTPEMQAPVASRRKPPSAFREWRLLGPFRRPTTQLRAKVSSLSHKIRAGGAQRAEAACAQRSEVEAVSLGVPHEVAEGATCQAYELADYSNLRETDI
Briefly: Radioligand binding, [3H]prazosin, cloned human α1A adrenergic receptor. The conditions noted are these: [3H]prazosin, cloned human receptor, LM(tk-) cell membranes; mean; read-out: PKi alpha-1 1a (converted). The procedure, abridged:
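Transfected LM(tk−) cells are lysed by sonication and membranes collected at 30,000× g. Membranes then bind 0.5 nM [3H]prazosin for 20 min at 37° C, and the reaction is stopped by filtration over GF/B filters, with 10 μM phentolamine giving nonspecific binding.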

T1 sequence (P22002 whole entry, other chains not shown, the tested form may be a part): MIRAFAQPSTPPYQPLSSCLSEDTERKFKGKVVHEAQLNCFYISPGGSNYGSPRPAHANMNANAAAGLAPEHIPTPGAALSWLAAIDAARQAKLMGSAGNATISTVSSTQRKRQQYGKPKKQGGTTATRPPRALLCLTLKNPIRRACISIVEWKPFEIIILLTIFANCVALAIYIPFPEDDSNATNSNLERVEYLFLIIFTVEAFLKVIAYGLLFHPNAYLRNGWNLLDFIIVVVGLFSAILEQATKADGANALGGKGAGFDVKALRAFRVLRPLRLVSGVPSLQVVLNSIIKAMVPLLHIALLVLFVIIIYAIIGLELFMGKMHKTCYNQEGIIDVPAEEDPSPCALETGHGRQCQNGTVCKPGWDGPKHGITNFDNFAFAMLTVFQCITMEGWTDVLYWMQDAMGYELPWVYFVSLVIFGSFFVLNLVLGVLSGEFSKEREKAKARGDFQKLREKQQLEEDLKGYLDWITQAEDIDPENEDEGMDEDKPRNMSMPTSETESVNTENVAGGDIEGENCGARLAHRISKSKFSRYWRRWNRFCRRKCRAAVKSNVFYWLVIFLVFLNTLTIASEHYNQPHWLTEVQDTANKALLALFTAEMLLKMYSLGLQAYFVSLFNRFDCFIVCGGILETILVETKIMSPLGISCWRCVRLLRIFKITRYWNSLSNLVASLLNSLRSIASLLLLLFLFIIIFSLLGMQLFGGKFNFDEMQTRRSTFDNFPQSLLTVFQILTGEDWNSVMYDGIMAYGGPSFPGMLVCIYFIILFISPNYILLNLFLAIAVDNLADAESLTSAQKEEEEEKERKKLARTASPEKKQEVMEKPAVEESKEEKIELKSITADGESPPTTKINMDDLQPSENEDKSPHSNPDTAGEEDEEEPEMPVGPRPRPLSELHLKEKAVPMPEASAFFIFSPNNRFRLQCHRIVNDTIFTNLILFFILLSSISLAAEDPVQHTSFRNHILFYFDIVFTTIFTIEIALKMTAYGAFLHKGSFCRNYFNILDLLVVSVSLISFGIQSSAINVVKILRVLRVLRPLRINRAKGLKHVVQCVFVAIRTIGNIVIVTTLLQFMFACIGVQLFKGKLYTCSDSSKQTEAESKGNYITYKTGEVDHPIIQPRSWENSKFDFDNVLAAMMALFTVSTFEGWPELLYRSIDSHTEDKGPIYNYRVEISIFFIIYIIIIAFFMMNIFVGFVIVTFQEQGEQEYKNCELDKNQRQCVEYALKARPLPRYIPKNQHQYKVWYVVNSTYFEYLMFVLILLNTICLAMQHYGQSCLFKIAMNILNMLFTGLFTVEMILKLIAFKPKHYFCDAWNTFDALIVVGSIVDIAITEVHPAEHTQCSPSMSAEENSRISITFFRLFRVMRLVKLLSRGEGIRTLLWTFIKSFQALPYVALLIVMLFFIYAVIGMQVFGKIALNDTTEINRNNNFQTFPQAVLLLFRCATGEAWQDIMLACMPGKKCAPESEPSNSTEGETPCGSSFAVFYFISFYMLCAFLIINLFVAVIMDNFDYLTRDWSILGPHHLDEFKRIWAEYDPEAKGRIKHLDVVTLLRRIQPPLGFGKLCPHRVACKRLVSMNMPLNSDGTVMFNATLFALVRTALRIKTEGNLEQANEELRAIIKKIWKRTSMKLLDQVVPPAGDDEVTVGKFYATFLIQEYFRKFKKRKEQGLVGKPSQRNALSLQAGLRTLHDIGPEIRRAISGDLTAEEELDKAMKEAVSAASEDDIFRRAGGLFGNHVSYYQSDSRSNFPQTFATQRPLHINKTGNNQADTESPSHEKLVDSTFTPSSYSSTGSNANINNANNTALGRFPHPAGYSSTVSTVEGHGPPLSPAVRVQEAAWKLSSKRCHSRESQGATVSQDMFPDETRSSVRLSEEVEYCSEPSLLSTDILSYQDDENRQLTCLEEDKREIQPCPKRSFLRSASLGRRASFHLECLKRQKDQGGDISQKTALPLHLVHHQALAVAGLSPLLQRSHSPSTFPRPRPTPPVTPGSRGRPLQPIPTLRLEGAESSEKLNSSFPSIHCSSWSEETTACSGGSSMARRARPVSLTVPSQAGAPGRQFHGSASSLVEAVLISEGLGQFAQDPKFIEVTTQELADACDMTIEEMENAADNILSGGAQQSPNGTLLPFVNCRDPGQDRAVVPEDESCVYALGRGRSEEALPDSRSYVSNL
T1 sequence (P54290 25-944 partner limits assumed, other chains not shown): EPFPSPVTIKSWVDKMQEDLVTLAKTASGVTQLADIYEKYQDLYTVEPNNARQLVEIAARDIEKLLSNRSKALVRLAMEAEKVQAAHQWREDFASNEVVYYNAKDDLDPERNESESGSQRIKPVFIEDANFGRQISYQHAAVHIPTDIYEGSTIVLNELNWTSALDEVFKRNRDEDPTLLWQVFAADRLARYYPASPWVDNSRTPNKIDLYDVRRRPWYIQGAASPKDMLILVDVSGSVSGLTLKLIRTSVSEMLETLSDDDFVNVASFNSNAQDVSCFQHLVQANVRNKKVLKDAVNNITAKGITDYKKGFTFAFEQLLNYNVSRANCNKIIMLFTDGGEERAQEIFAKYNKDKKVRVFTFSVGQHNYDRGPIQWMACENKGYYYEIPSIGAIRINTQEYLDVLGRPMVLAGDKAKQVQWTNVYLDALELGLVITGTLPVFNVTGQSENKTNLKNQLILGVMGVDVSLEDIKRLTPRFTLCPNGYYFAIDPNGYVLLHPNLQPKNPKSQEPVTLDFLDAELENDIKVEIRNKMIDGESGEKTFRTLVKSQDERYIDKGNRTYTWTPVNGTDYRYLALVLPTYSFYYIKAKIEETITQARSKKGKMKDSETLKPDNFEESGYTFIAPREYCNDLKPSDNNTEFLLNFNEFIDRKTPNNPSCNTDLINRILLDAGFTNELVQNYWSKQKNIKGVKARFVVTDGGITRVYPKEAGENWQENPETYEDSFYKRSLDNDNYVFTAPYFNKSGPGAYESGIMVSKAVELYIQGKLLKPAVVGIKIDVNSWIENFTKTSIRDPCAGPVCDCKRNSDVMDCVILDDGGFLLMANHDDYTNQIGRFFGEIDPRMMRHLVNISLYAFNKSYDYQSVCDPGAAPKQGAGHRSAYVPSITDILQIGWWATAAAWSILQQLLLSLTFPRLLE
T1 sequence (P54290 945-1091 partner limits assumed, other chains not shown): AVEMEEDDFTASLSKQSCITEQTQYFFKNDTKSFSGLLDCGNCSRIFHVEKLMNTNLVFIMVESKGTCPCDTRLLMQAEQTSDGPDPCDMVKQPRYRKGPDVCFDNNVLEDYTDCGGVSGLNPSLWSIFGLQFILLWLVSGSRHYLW

`CCC1=C(C(N)=O)C(c2ccc([N+](=O)[O-])cc2)C(C(=O)NCCCN2CCC(c3ccccc3)(c3ccccc3)CC2)=C(COCCN)N1` (racemic) [(±)-144, 2-((2-Aminoethyl)oxy)methyl-5-carboxamido-6-ethyl-1,4-dihydro-4-(4-nitro)phenyl-3-(N-(3-(4,4-diphenylpiperidin-1-yl)propyl))carboxamidopyridine]: the Ki in data set [1] was 12600 nM.

As for `COC(=O)C1(c2ccccc2)CCN(CCCNC(=O)C2=C(C)NC(C)=C(C(=O)O)C2c2ccc([N+](=O)[O-])cc2)CC1` (stereo not drawn) [Example 204, 1,4-Dihydro-2,6-dimethyl-3-{N-[3-(4-methoxycarbonyl-4-phenylpiperidin-1-yl)propyl]}carboxamido-4-(4-nitrophenyl)pyridine-5-carboxylic acid], the melting point (in general, the temperature of the solid-liquid transition) was in the range of 139 to 141 °C. Also, in data set [2], the Ki was 1170 nM. Besides, the Ki in data set [3] was 1700 nM. Besides, the Ki in data set [4] was 1230 nM.

Take `COC(=O)C1(c2ccccc2)CCN(CCCNC(=O)C2=C(C)NC(C)=C(C(=O)OCCO)C2c2ccc([N+](=O)[O-])cc2)CC1` (stereo not drawn) [Example 207, 1,4-Dihydro-2,6-dimethyl-5-(2-hydroxyethoxycarbonyl)-3-{N-[3-(4-methoxycarbonyl-4-phenylpiperidin-1-yl)propyl]}carboxamido-4-(4-nitrophenyl)pyridine]: the melting point lay within 90 to 91 °C. The Ki in data set [5] is 1860 nM. Also, the Ki in data set [2] is 724 nM. In addition, in data set [3], the Ki is 955 nM. The Ki in data set [4] was 1780 nM.

Consider `CCOC(=O)C1=C(C)NC(C)=C(C(=O)NCCCN2CCC(C(=O)OC)(c3ccccc3)CC2)C1c1ccc([N+](=O)[O-])cc1` (stereo not drawn) [Example 208], for which the melting point was in the range of 73 to 75 °C. The Ki in data set [5] is 741 nM. Moreover, in data set [2], the Ki is 2690 nM. For the same compound, the Ki in data set [3] is 1260 nM. The Ki in data set [4] was 977 nM.
